Reference: US20230174945A1, “METHOD FOR INDUCING DIFFERENTIATION INTO PANCREATIC ALPHA CELLS” (KANEKA CORPORATION, priority 2020, published 2023)

Assays:
human iPS cells [1] = assay: Quantitative RT-PCR of cells differentiated from human iPS cells, with additives in the endodermal cell to primitive gut tube (PGT) cell step; assay type: cell-based; details: added to medium for 3 days when inducing endodermal cells into PGT cells (0.67 µM LDN193189, 1 µM EC23); compared to cells of Comparative Example 1; standardized by OAZ1; FIG. 1
Procedure: Differentiation was induced by the same method as in Comparative Example 1 up to the endodermal cells. For induction of differentiation from the endodermal cells into primitive gut tube (PGT) cells, the suspension culture was implemented for 3 days in a medium obtained by adding 0.67 µM LDN193189 to the medium used in Comparative Example 1, a medium obtained by adding 1 µM EC23 to the medium used in Comparative Example 1, or a medium obtained by adding both of them to the medium used in Comparative Example 1. In addition, 2.5 µM Y-27632 was added to the above-mentioned medium for the purpose of maintaining the shape of the clumps. A 30 mL single-use bioreactor was mounted on a six-channel magnetic stirrer, and while stirring at the speed of 45 rpm, the suspension culture was implemented in a 5% CO2 incubator at 37° C. Induction of differentiation after posterior foregut (PFG) cells was performed in the same method as in Comparative Example 1.
Total RNA was isolated and purified from the cells obtained by inducing differentiation in (1) using Isogen (Nippon Gene), and cDNA was synthesized from the obtained total RNA using PrimeScriptII (TaKaRa Bio Inc.). Using the obtained cDNA as a template, quantitative PCR was implemented by means of a MyiQ qPCR machine (Bio-Rad), using GoTaq qPCR master mix (Promega). For the detection, the intercalation method using SYBR Green was used, and for the gene expression level comparison, the relative quantification method by means of the ΔΔCt method or the ΔCt method was used. The expression level of each gene was standardized by OAZ1 which is a housekeeping gene.

human iPS cells [2] = assay: Measurement of GCG (glucagon) secretion amount by Glucagon ELISA; assay type: cell-based; details: ascorbic acid removed from differentiation medium after PGT cells (Example 2) compared to medium with 0.25 mM ascorbic acid (Example 1); 2.0 mM glucose, 1 hour; FIG. 2
Procedure: Primitive gut tube (PGT) cells were produced from human iPS cells by the same method as in Example 1. The obtained primitive gut tube (PGT) cells were induced to differentiate into cells after posterior foregut (PFG) cells using a medium obtained by removing ascorbic acid from the medium of Comparative Example 1. The cells obtained by inducing differentiation in (1) were recovered in 2 × 10^6 cells and cultured for 30 minutes in a DMEM medium (containing 2 mM glucose) containing 10 mM HEPES and 0.1 (volume/volume)% BSA. Thereafter, the cells were washed twice with a DMEM medium (without glucose) containing 10 mM HEPES and 0.1 (volume/volume)% BSA. Thereafter, the cells were cultured for 1 hour in a DMEM medium containing 1 mL of 2.0 mM glucose, 10 mM HEPES, and 0.1 (volume/volume)% BSA. Thereafter, the GCG concentration contained in the culture supernatant was measured using a Glucagon ELISA 10 µl Kit (Mercodia). The GCG secretion amounts of the cells obtained in Example 1 and Comparative Example 1 were also measured as comparison targets by the above-mentioned method.

CC1(C)CCC(C)(C)c2cc(C#Cc3ccc(C(=O)O)cc3)ccc21 [EC23]
expression level of the GCG gene (human iPS cells [1]): up-regulation

c1ccc2c(-c3cnn4cc(-c5ccc(N6CCNCC6)cc5)cnc34)ccnc2c1 [LDN193189]
expression level of the INS gene (human iPS cells [1]): down-regulation | expression level of the NKX6.1 gene (human iPS cells [1]): down-regulation

O=C1O[C@H]([C@@H](O)CO)C(O)=C1O [ascorbic acid]
glucagon secretion amount (human iPS cells [2]): larger
